From patent publication US20240092784A1, “CONDENSED HETEROCYCLIC COMPOUND” (NISSAN CHEMICAL CORPORATION, priority 2020, published 2024)
Structures can show the parent of a compound that is named as a salt.

target: human SPR (Homo sapiens (Human), UniProt P35270); test: Evaluation Example 2: Measurement of human SPR inhibitory activity (seven concentrations, sepiapterin absorbance at 420 nm); assay type: biochemical; conditions: Evaluation Example 2, seven concentrations 0.14 nM to 100 nM, 240 minutes at room temperature, read-out: IC50
Protocol: Human SPR was prepared as described below. The full-length human SPR (1-261) cDNA was purchased from Eurofins Genomics as an artificially synthesized plasmid containing a DNA sequence optimized for the E. coli expression system so that the sequence of the expressed protein after transcription and translation matches the sequence described in UniprotKB (P35270).
Linearized insert and vector were prepared by PCR using primers designed for amplification of human SPR cDNA and primers designed to contain the thrombin recognition sequence of pET28a (Novagen) and a polyhistidine tag. Cloning was performed using In-Fusion (registered trademark) HD Cloning Kit (TaKaRa) to thereby construct a human SPR expression plasmid. The resultant human SPR expression plasmid was transformed into BL21 (DE3) competent cells (INVITROGEN).
The cells were inoculated into LB medium (1% triptone, 0.5% yeast extract, 1% sodium chloride) containing […] of kanamycin, and then precultured at 37° C. overnight. The precultured cells were inoculated into TB medium (1.2% triptone, 2.4% yeast extract, 9.4% dipotassium hydrogen phosphate, 2.2% potassium dihydrogen phosphate, 0.8% glycerin) containing […] of kanamycin, and the cultured at 37° C., to thereby induce SPR expression with 0.5 mM IPTG for four hours. After the induction, the cells were collected by centrifugation at 6,000 G for 30 minutes and washed with PBS, and the washing was discarded. The washed cells were suspended in buffer solution A (20 mM MES, pH 6.5, 100 mM sodium chloride, 1 mM DTT, 5 mM imidazole). Subsequently, the cell suspension was subjected to ultrasonic treatment to thereby homogenize the cells. The cell homogenate was clarified by centrifugation at 30,000 G for 60 minutes and then filtered with a […]. The filtrate was allowed to pass through HisTrapFF 5 mL column (GE Healthcare). The resin was washed with buffer A, and then gradient elution was performed with buffer B (20 mM MES, pH 6.5, 100 mM sodium chloride, 1 mM DTT, 500 mM imidazole). Thrombin was added to a fraction containing the SPR protein, and the mixture was dialyzed in buffer A overnight, to thereby cleave the tag. After removal of the thrombin by with Benzamidine Sepharose 4 FF (GE Healthcare), the resultant product was allowed to pass through the HisTrapFF 5 mL column, to thereby remove the tag, followed by concentration with Amicon Ultra 10,000 NMWL (Merck Millipore). The concentrate was purified by gel filtration using HiLoad 16/60 Superdex 75 pg (GE Healthcare) equilibrated with buffer C (20 mM MES, pH 6.5, 100 mM sodium chloride, 1 mM DTT). The fraction containing SPR protein was concentrated and then cryopreserved at −80° C.
Human SPR inhibitory activity was measured by using a 384-well low adsorption clear plate (Greiner) with buffer D containing 100 mM Tris-HCl (pH 7.5) (Thermo Fisher Scientific) and 0.01% bovine serum albumin (Sigma). A compound was diluted with DMSO to achieve seven different final concentrations; i.e., 0.14 nM, 0.41 nM, 1.23 nM, 3.7 nM, 11.1 nM, 33 nM, and 100 nM. A 1.5 μL aliquot of the compound solution prepared with DMSO was diluted with 250 μL of buffer D, and the thus-diluted solution was dispensed into the 384-well plate at 20 μL/well. Thereafter, human SPR was diluted with buffer D to 150 ng/mL and then dispensed into the 384-well plate at 20 μL/well. Subsequently, 40 μL of ultrapure water containing 120 μM sepiapterin (produced by the method described in L-Sepiapterin, Heterocycles, 2008, 76, 1329-1335 and WO 2013/168693) and 160 μM NADPH (Nacalai) was added to each well, and then reaction was initiated. The reaction mixture was incubated at room temperature for 240 minutes. Thereafter, in order to determine the amount of sepiapterin, the absorbance at 420 nm was measured by applying the 384-well plate to EnSpire multimode plate reader (Perkin Elmer). The percent inhibition (%) of human SPR by the test compound was calculated by the following formula.

human SPR, sequence (P35270 whole entry): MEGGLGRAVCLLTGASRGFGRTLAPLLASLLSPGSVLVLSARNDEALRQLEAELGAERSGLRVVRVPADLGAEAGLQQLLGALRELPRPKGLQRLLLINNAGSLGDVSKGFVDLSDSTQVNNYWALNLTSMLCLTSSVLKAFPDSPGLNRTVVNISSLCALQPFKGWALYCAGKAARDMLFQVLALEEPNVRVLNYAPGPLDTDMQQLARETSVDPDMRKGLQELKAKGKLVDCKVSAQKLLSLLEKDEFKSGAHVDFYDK

| Structure (SMILES) | IC50 |
| --- | --- |
| CC(C)Cn1c(=O)c(C(=O)NC2CC2)c(O)n2ncc(C(=O)NCc3ccc(F)cc3F)c12 [Synthesis Example 234, N6-Cyclopropyl-N3-(2,4-difluorobenzyl)-7-hydroxy-4-isobutyl-5-oxo-4,5-dihydropyrazolo[1,5-a]pyrimidine-3,6-dicarboxamide] | 1.41 nM |
| CC(C)Cn1c(=O)c(C(=O)NC2CC2)c(O)n2ncc(C(=O)NCc3ncccc3F)c12 [Synthesis Example 235, N6-Cyclopropyl-N3-((3-fluoropyridin-2-yl)methyl)-7-hydroxy-4-isobutyl-5-oxo-4,5-dihydropyrazolo[1,5-a]pyrimidine-3,6-dicarboxamide] | 0.9 nM |
| CC(C)Cn1c(=O)c(C(=O)NC2CC2)c(O)n2ncc(/C=C/c3cnccn3)c12 [Synthesis Example 236, (E)-N-Cyclopropyl-7-hydroxy-4-isobutyl-5-oxo-3-(2-(pyrazin-2-yl)vinyl)-4,5-dihydropyrazolo[1,5-a]pyrimidine-6-carboxamide] | 0.97 nM |
| CC(C)Cn1c(=O)c(C(=O)NC2CC2)c(O)n2ncc(/C=C/C3CCOCC3)c12 [Synthesis Example 237, (E)-N-Cyclopropyl-7-hydroxy-4-isobutyl-5-oxo-3-(2-(tetrahydro-2H-pyran-4-yl)vinyl)-4,5-dihydropyrazolo[1,5-a]pyrimidine-6-carboxamide] | 0.91 nM |
| Cc1noc(C)c1/C=C/c1cnn2c(O)c(C(=O)NC3CC3)c(=O)n(CC(C)C)c12 [Synthesis Example 238, (E)-N-Cyclopropyl-3-(2-(3,5-dimethylisoxazol-4-yl)vinyl)-7-hydroxy-4-isobutyl-5-oxo-4,5-dihydropyrazolo[1,5-a]pyrimidine-6-carboxamide] | 0.89 nM |
| CC(C)Cn1c(=O)c(C(=O)NC2CC2)c(O)n2ncc(C3=CCCNC3)c12 [Synthesis Example 239, N-Cyclopropyl-7-hydroxy-4-isobutyl-5-oxo-3-(1,2,5,6-tetrahydropyridin-3-yl)-4,5-dihydropyrazolo[1,5-a]pyrimidine-6-carboxamide hydrochloride] | 0.72 nM |
| CC(C)Cn1c(=O)c(C(=O)NC2CC2)c(O)n2ncc(/C=C/c3cscn3)c12 [Synthesis Example 240, (E)-N-Cyclopropyl-7-hydroxy-4-isobutyl-5-oxo-3-(2-(thiazol-4-yl)vinyl)-4,5-dihydropyrazolo[1,5-a]pyrimidine-6-carboxamide] | 1.84 nM |
| CC(C)Cn1c(=O)c(C(=O)NC2CC2)c(O)n2ncc(/C=C/C3CCNCC3)c12 [Synthesis Example 241, (E)-N-Cyclopropyl-7-hydroxy-4-isobutyl-5-oxo-3-(2-(piperidin-4-yl)vinyl)-4,5-dihydropyrazolo[1,5-a]pyrimidine-6-carboxamide hydrochloride] | 1.98 nM |
| CC(C)Cn1c(=O)c(C(=O)NC2CC2)c(O)n2ncc(/C=C/C3(C)CCOCC3)c12 [Synthesis Example 242, (E)-N-Cyclopropyl-7-hydroxy-4-isobutyl-3-(2-(4-methyltetrahydro-2H-pyran-4-yl)vinyl)-5-oxo-4,5-dihydropyrazolo[1,5-a]pyrimidine-6-carboxamide] | 1.39 nM |
| CC(C)Cn1c(=O)c(C(=O)NC2CC2)c(O)n2ncc(/C=C/C(C)(C)C)c12 [Synthesis Example 243, (E)-N-Cyclopropyl-3-(3,3-dimethylbut-1-en-1-yl)-7-hydroxy-4-isobutyl-5-oxo-4,5-dihydropyrazolo[1,5-a]pyrimidine-6-carboxamide] | 1.58 nM |
| CC(=O)N1CCC(/C=C/c2cnn3c(O)c(C(=O)NC4CC4)c(=O)n(CC(C)C)c23)CC1 [Synthesis Example 244, (E)-3-(2-(1-Acetylpiperidin-4-yl)vinyl)-N-cyclopropyl-7-hydroxy-4-isobutyl-5-oxo-4,5-dihydropyrazolo[1,5-a]pyrimidine-6-carboxamide] | 0.99 nM |
| CC(=O)N1CCC(C)(/C=C/c2cnn3c(O)c(C(=O)NC4CC4)c(=O)n(CC(C)C)c23)CC1 [Synthesis Example 245, (E)-3-(2-(1-Acetyl-4-methylpiperidin-4-yl)vinyl)-N-cyclopropyl-7-hydroxy-4-isobutyl-5-oxo-4,5-dihydropyrazolo[1,5-a]pyrimidine-6-carboxamide] | 1.08 nM |
| CC(C)Cn1c(=O)c(C(=O)NC2CC2)c(O)n2ncc(/C=C/C3CC3)c12 [Synthesis Example 246, (E)-N-Cyclopropyl-3-(2-cyclopropylvinyl)-7-hydroxy-4-isobutyl-5-oxo-4,5-dihydropyrazolo[1,5-a]pyrimidine-6-carboxamide] | 1.19 nM |
| CC(C)Cn1c(=O)c(C(=O)NC2CC2)c(O)n2ncc(/C=C/c3cccnc3)c12 [Synthesis Example 247, (E)-N-Cyclopropyl-7-hydroxy-4-isobutyl-5-oxo-3-(2-(pyridin-3-yl)vinyl)-4,5-dihydropyrazolo[1,5-a]pyrimidine-6-carboxamide] | 0.94 nM |
| CC(C)Cn1c(=O)c(C(=O)NC2CC2)c(O)n2ncc(/C=C/c3ccc(C(F)(F)F)nc3)c12 [Synthesis Example 248, (E)-N-Cyclopropyl-7-hydroxy-4-isobutyl-5-oxo-3-(2-(6-(trifluoromethyl)pyridine-3-yl)vinyl)-4,5-dihydropyrazolo[1,5-a]pyrimidine-6-carboxamide] | 1.89 nM |
| CC(C)Cn1c(=O)c(C(=O)NC2CC2)c(O)n2ncc(/C=C/C3CCN(CC(F)(F)F)CC3)c12 [Synthesis Example 249, (E)-N-Cyclopropyl-7-hydroxy-4-isobutyl-5-oxo-3-(2-(1-(2,2,2-trifluoroethyl)piperidin-4-yl)vinyl)-4,5-dihydropyrazolo[1,5-a]pyrimidine-6-carboxamide] | 2.69 nM |
| CC(C)Cn1c(=O)c(C(=O)NC2CC2)c(O)n2ncc(CCc3cccnc3)c12 [Synthesis Example 250, N-Cyclopropyl-7-hydroxy-4-isobutyl-5-oxo-3-(2-(pyridin-3-yl)ethyl)-4,5-dihydropyrazolo[1,5-a]pyrimidine-6-carboxamide] | 0.88 nM |
| CC(C)Cn1c(=O)c(C(=O)NC2CC2)c(O)n2ncc(CCc3ccc(C(F)(F)F)nc3)c12 [Synthesis Example 251, N-Cyclopropyl-7-hydroxy-4-isobutyl-5-oxo-3-(2-(6-(trifluoromethyl)pyridin-3-yl)ethyl)-4,5-dihydropyrazolo[1,5-a]pyrimidine-6-carboxamide] | 1.74 nM |
| C/C(=C\c1cnn2c(O)c(C(=O)NC3CC3)c(=O)n(CC(C)C)c12)C(=O)O [Synthesis Example 252, (E)-3-(6-(Cyclopropylcarbamoyl)-7-hydroxy-4-isobutyl-5-oxo-4,5-dihydropyrazolo[1,5-a]pyrimidin-3-yl)-2-methylacrylic acid] | 7.11 nM |
| C/C(=C\c1cnn2c(O)c(C(=O)NC3CC3)c(=O)n(CC(C)C)c12)C(=O)N1CCC(F)(F)CC1 [Synthesis Example 253, (E)-N-Cyclopropyl-3-(3-(4,4-difluoropiperidin-1-yl)-2-methyl-3-oxoprop-1-en-1-yl)-7-hydroxy-4-isobutyl-5-oxo-4,5-dihydropyrazolo[1,5-a]pyrimidine-6-carboxamide] | 0.85 nM |
| C/C(=C\c1cnn2c(O)c(C(=O)NC3CC3)c(=O)n(CC(C)C)c12)C(=O)N1CCOCC1 [Synthesis Example 254, (E)-N-Cyclopropyl-7-hydroxy-4-isobutyl-3-(2-methyl-3-morpholino-3-oxoprop-1-en-1-yl)-5-oxo-4,5-dihydropyrazolo[1,5-a]pyrimidine-6-carboxamide] | 0.84 nM |
